Key:
[1] = tested on: TNFα; test: Inhibition of TNFα in vivo (LPS challenge, plasma TNFα ELISA); conditions: female Balb/c mice, p.o., LPS 400 μg/kg IP 1 hour after compound, plasma 1.5 hours after LPS
Experimental: Compounds are administered p.o. (30, 10, 3 and 1 mg/kg) to female Balb/c mice (6 mice/dose). 1 hour following compound administration at 4 doses (P.O. at volume of 0.1 mL/mouse; vehicle: 1% NaCMC/0.25% Tween-80 in water); mice are given an IP-injection of LPS at 400 μg/kg. 1.5 hours after LPS challenging, mice are anesthetized with isoflurane and blood is taken via cardiac puncture. TNFa-levels in the plasma are determined using ELISA kit from R&D Systems and dose response ED50 is determined.
The compound exemplified in Example 12 is tested essentially as described above and suppressed TNFα in vivo with an TMED50 of 1.0 mg/kg. The Threshold Minimum Effective Dose (TMED) 50 is the dose at which greater than or equal to 50% inhibition was achieved and statistically different from control/placebo.

[2] = tested on: p-MAPKAPK2; test: Anisomycin-stimulated mice ex-vivo phospho-MAPKAPK2 inhibition assay by flow cytometry; type: in vivo; conditions: female Balb/c mice, po, blood after 2 hours, ex vivo anisomycin 10 μg/ml, CD11b+Ly6G- cells
Experimental: Female Balb/c mice with 8-10 week-old age are purchased from Taconic Inc. and dosed po with 0.2 mL volume of compounds at the concentrations of 30, 10, 3, 1 mg/kg. Blood is obtained from cardiac puncture after 2 hours or other indicated time periods and collected in EDTA-containing tubes. 100 μL of blood is incubated at 37° C. for 10 minutes. Whole blood is then mixed with FITC-conjugated rat anti-mouse Ly-6G mAb (1:250) and APC-conjugated rat anti-mouse CD11b mAb (1:100) and stimulated with 10 μg/ml anisomycin. Both cell surface antigen staining and anisomycin stimulation is conducted at 37° C. for 15 min and followed up with Lyse/Fix buffer (BD Biosciences, Cat# 558049) for 10 min at room temperature. Lysed blood samples are spun down at 600×g for 8 minutes at room temperature with additional wash once by 4 mL PBS. 200 μL of diluted anti-Phospho-MAPKAPK-2 (Thr334) antibody (1:100 dilution) (Cell Signaling, Cat# 3041) and mouse BD Fc Block (1:100 dilution) (BD Biosciences, 553141) in permeabilization Medium B (Caltag, Cat# GAS002S-5) are added into blood cells and incubate at room temperature for 30 min. After the incubation, 3 mL of stain/wash buffer is added and cells are spanned down as described above with additional wash with 3 ml stain/wash buffer. […] Mean fluorescence of phosphono-MapKap-K2 staining is measured on gated CD11b+Ly6G-cells. […]

[3] = tested on: TNFα; test: Inhibition of TNFα in vitro (LPS/interferon-γ treated mouse peritoneal macrophages, Luminex); type: cell-based; conditions: Peritoneal macrophage, LPS 50 ng/mL and interferon-γ 10 U/mL, 18 hours, read-out: IC50, suppression of TNFα in vitro
Experimental: 1 mL thioglycolate broth (5.0 g yeast extract, 15.0 g casitone or trypticase, 5.0 g dextrose, 2.5 g sodium chloride, 0.75 g L-cystine, 0.5 g sodium thioglycolate, 1.0 mg resazurin, and 0.75 g agar in 1.0 L distilled water) are injected into the peritoneal cavity of Balb/C female mice. At day 4 or 5 post-injection the mice are sacrificed and then injected i.p. with 4 mL RPMI-1640 medium (BioWhittaker) and the peritoneal macrophages are withdrawn by syringe.
Mouse peritoneal macrophages are counted with a hemocytometer and adjusted to 5×10^5 cells/well in 96-well plates in RPMI-1640 medium with 10% fetal bovine serum. 200 μL/well is plated in 96-well plates and the cells allowed to settle and adhere to the bottom of the well for at least 3 hours. The test compound or standard p38 kinase inhibitor is pre-treated using a series of 8 concentrations for 1 hour at 37° C. […]
50 μL of cytokine detection antibody is added and incubated for 60 seconds at room temperature on a shaker protected from light at setting 6 and then for 30 minutes at setting 3.3 washes are performed with the Bio-Plex Wash Buffer. […] Standards and samples are read on a Luminex machine. These intensity readings are then converted to picogram/milliliter units based on a 12-point standard curve created in duplicate using a four-parameter logistic regression method (Bio-Plex Manager 2.0, Bio-Rad), and the IC50 calculated. […]

For `CS(=O)(=O)O.Cc1ccc(-n2nc(C3(C)CC3)cc2NC(=O)Nc2cnc(OC3CCN(C(=O)C4(C)CC4)CC3)c3ccccc23)cc1` [Example 12, 1-{1-[1-(1-Methyl-cyclopropanecarbonyl)-piperidin-4-yloxy]-isoquinolin-4-yl}-3-[5-(1-methyl-cyclopropyl)-2-p-tolyl-2H-pyrazol-3-yl]-urea mesylate], the “TMED50, suppression of TNFα in vivo” value [1] was 1.0 mg/kg, the “TMED50, inhibition of p-MAPKAPK2 synthesis” value [2] was 2.20 mg/kg and the IC50 [3] was less than 9 nM.
